In PubChem BioAssay AID248 (DTP/NCI, 2004):
Values joined by “and” are separate entries in the source; they are usually repeats but may differ in a detail not shown here. Equal entries are not always repeated. Inconclusive results and toxic doses are left out. No stated cut-off is given here; in the data, active means T/C of 150% or more; inactive means T/C below 125%.

Tested on: L1210 leukemia ip in BDF1 mice, survival T/C
Test: NCI In Vivo Anticancer Drug Screen. Data for tumor model L1210 Leukemia (intraperitoneal) in B6D2F1 (BDF1) mice
Conditions: endpoint: mean survival time, higher = longer survival
Summary of the method: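 Ratio derived from survival: compound-dosed mice over vehicle-dosed mice, all bearing a transplantable tumor.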

[1] = dose: 50.0 mg/kg/injection, schedule: Q01DX009 (ip), vehicle: saline
[2] = dose: 100.0 mg/kg/injection, schedule: Q01DX009 (ip), vehicle: saline with Tween-80
[3] = dose: 100.0 mg/kg/injection, schedule: Q01DX009 (ip), vehicle: saline
[4] = dose: 200.0 mg/kg/injection, schedule: Q01DX009 (ip), vehicle: saline with Tween-80
[5] = dose: 100.0 mg/kg/injection, schedule: Q01DX001 (ip), vehicle: other
[6] = dose: 200.0 mg/kg/injection, schedule: Q01DX001 (ip), vehicle: other
[7] = dose: 400.0 mg/kg/injection, schedule: Q01DX001 (ip), vehicle: other
[8] = dose: 100.0 mg/kg/injection, schedule: Q01DX001 (ip), vehicle: saline
[9] = dose: 200.0 mg/kg/injection, schedule: Q01DX001 (ip), vehicle: saline
[10] = dose: 400.0 mg/kg/injection, schedule: Q01DX001 (ip), vehicle: saline
[11] = dose: 100.0 mg/kg/injection, schedule: Q04DX003 (ip), vehicle: saline
[12] = dose: 200.0 mg/kg/injection, schedule: Q04DX003 (ip), vehicle: saline
[13] = dose: 100.0 mg/kg/injection, schedule: Q01DX001 (ip), vehicle: carboxymethylcellulose (CMC)
[14] = dose: 200.0 mg/kg/injection, schedule: Q01DX001 (ip), vehicle: carboxymethylcellulose (CMC)
[15] = dose: 400.0 mg/kg/injection, schedule: Q01DX001 (ip), vehicle: carboxymethylcellulose (CMC)
[16] = dose: 100.0 mg/kg/injection, schedule: Q04DX002 (ip), vehicle: Klucel (hydroxypropylcellulose) (HPC)
[17] = dose: 200.0 mg/kg/injection, schedule: Q04DX002 (ip), vehicle: Klucel (hydroxypropylcellulose) (HPC)
[18] = dose: 12.5 mg/kg/injection, schedule: Q01DX009 (ip), vehicle: saline
[19] = dose: 25.0 mg/kg/injection, schedule: Q01DX009 (ip), vehicle: saline

Measured: T/C

Cc1ccc(Cl)c(NC(=O)Nc2cccc(F)c2)c1
inactive: dose: 100.0 mg/kg/injection, schedule: Q01DX009 (ip), vehicle: Klucel (hydroxypropylcellulose) (HPC) 94 % of control | dose: 200.0 mg/kg/injection, schedule: Q01DX009 (ip), vehicle: Klucel (hydroxypropylcellulose) (HPC) 87 % of control | dose: 400.0 mg/kg/injection, schedule: Q01DX009 (ip), vehicle: Klucel (hydroxypropylcellulose) (HPC) 89 % of control

COC(C(OC)N1CCOCC1)N1CCOCC1 (configuration not stated)
inactive: [1] 102 % of control | [2] 95 % of control | [3] 110 % of control | dose: 100.0 mg/kg/injection, schedule: Q04DX003 (ip), vehicle: saline with Tween-80 93 % of control | dose: 132.0 mg/kg/injection, schedule: Q01DX009 (ip), vehicle: saline with Tween-80 90 % of control | [4] 101 % of control and 97 % of control | dose: 200.0 mg/kg/injection, schedule: Q04DX003 (ip), vehicle: saline with Tween-80 98 % of control | dose: 300.0 mg/kg/injection, schedule: Q01DX009 (ip), vehicle: saline with Tween-80 99 % of control | dose: 400.0 mg/kg/injection, schedule: Q01DX009 (ip), vehicle: saline with Tween-80 89 % of control | dose: 400.0 mg/kg/injection, schedule: Q04DX003 (ip), vehicle: saline with Tween-80 94 % of control

CC1(C)OC2OC(COC(=S)Sc3ccc([N+](=O)[O-])cc3[N+](=O)[O-])C3OC(C)(C)OC3C2O1 (configuration not stated)
inactive: dose: 6.25 mg/kg/injection, schedule: Q04DX002 (ip), vehicle: saline 95 % of control | dose: 12.5 mg/kg/injection, schedule: Q04DX002 (ip), vehicle: saline 98 % of control | dose: 25.0 mg/kg/injection, schedule: Q04DX002 (ip), vehicle: saline 106 % of control and 91 % of control | dose: 50.0 mg/kg/injection, schedule: Q04DX002 (ip), vehicle: saline 120 % of control | dose: 100.0 mg/kg/injection, schedule: Q04DX002 (ip), vehicle: saline 100 % of control

Cc1nc(N)c([N+](=O)[O-])cc1[N+](=O)[O-]
inactive: dose: 100.0 mg/kg/injection, schedule: Q01DX009 (ip), vehicle: acetone 100 % of control

c1cc(Sc2ccc(OCC3CO3)cc2)ccc1OCC1CO1 (configuration not stated)
inactive: [5] 94 % of control | [6] 97 % of control | [7] 92 % of control

C(=N\N1CCN(/N=C/c2ccc(OCc3ccccc3)cc2)CC1)/c1ccc(OCc2ccccc2)cc1
inactive: [8] 102 % of control | [9] 96 % of control | [10] 93 % of control

CCCCC(CC)CNCC(CC)CCCC (configuration not stated)
inactive: dose: 25.0 mg/kg/injection, schedule: Q04DX003 (ip), vehicle: carboxymethylcellulose (CMC) 100 % of control | dose: 50.0 mg/kg/injection, schedule: Q04DX003 (ip), vehicle: carboxymethylcellulose (CMC) 102 % of control | dose: 100.0 mg/kg/injection, schedule: Q04DX003 (ip), vehicle: carboxymethylcellulose (CMC) 97 % of control | dose: 100.0 mg/kg/injection, schedule: Q04DX013 (ip), vehicle: carboxymethylcellulose (CMC) 96 % of control

CC1(CC(=O)NN)OCCO1
inactive: dose: 100.0 mg/kg/injection, schedule: Q01DX001 (ip), vehicle: Klucel (hydroxypropylcellulose) (HPC) 104 % of control | dose: 200.0 mg/kg/injection, schedule: Q01DX001 (ip), vehicle: Klucel (hydroxypropylcellulose) (HPC) 102 % of control | dose: 400.0 mg/kg/injection, schedule: Q01DX001 (ip), vehicle: Klucel (hydroxypropylcellulose) (HPC) 107 % of control

CC1(C)CC(N)CC(C)(C)N1O
inactive: [11] 100 % of control | [12] 97 % of control

C[n+]1c(/C=C/c2ccc(O)c3ncccc23)[se]c2ccccc21
inactive: [13] 95 % of control | [11] 108 % of control | [14] 100 % of control | [12] 110 % of control | [15] 105 % of control | dose: 400.0 mg/kg/injection, schedule: Q04DX003 (ip), vehicle: saline 105 % of control

NC(CSS(=O)(=O)O)=NCc1cccnc1
inactive: [16] 89 % of control | [17] 105 % of control

O=C(N/N=C\c1ccccc1Cl)c1ccco1
inactive: [13] 92 % of control | [14] 86 % of control

CC(=O)OC1CCC2(C)C(CCC3C2CCC2(C)C3CC(OC(C)=O)C2C(C)C2=NCC(C)CC2)C1 (configuration not stated)
inactive: dose: 100.0 mg/kg/injection, schedule: Q04DX003 (ip), vehicle: Klucel (hydroxypropylcellulose) (HPC) 94 % of control | dose: 200.0 mg/kg/injection, schedule: Q04DX003 (ip), vehicle: Klucel (hydroxypropylcellulose) (HPC) 98 % of control | dose: 400.0 mg/kg/injection, schedule: Q04DX003 (ip), vehicle: Klucel (hydroxypropylcellulose) (HPC) 105 % of control

C=C(Br)CNC(C)=O
inactive: [18] 113 % of control | [19] 106 % of control | [1] 98 % of control | [3] 120 % of control | [11] 113 % of control | [12] 113 % of control

O=C(O)c1cccc(F)c1CBr
inactive: dose: 75.0 mg/kg/injection, schedule: Q01DX001 (ip), vehicle: carboxymethylcellulose (CMC) 104 % of control

O=C1c2ccccc2C(=O)C1(Br)Br
inactive: dose: 50.0 mg/kg/injection, schedule: Q01DX001 (ip), vehicle: saline 106 % of control | [8] 97 % of control | [9] 101 % of control

CCC1([N+](=O)[O-])COP(=O)(OC(=O)c2ccco2)OC1 (configuration not stated)
inactive: [8] 97 % of control | [9] 96 % of control | [10] 96 % of control

CN1CCC(OC2c3ccccc3CCc3ccccc32)CC1
inactive: dose: 3.12 mg/kg/injection, schedule: Q01DX009 (ip), vehicle: saline 109 % of control | dose: 6.25 mg/kg/injection, schedule: Q01DX009 (ip), vehicle: saline 108 % of control | [18] 106 % of control | [19] 111 % of control | dose: 25.0 mg/kg/injection, schedule: Q04DX003 (ip), vehicle: saline 100 % of control | [1] 117 % of control | dose: 50.0 mg/kg/injection, schedule: Q04DX003 (ip), vehicle: saline 103 % of control | [3] 88 % of control | [11] 86 % of control

CCN(c1ccc(Br)cc1)c1ccc(Br)cc1
inactive: [13] 100 % of control | [14] 94 % of control | [15] 105 % of control

COC(=O)CCC(OC(C)=O)C(=O)c1ccccc1 (configuration not stated)
inactive: dose: 50.0 mg/kg/injection, schedule: Q01DX009 (ip), vehicle: saline with Tween-80 91 % of control | [2] 94 % of control | [4] 88 % of control

CC1C(N2CCCCC2)N(C(=O)c2ccccc2)SC12c1ccccc1-c1ccccc12 (configuration not stated)
inactive: [16] 94 % of control | [17] 102 % of control | dose: 400.0 mg/kg/injection, schedule: Q04DX002 (ip), vehicle: Klucel (hydroxypropylcellulose) (HPC) 102 % of control

Cc1c(C(C)(C)c2ccccc2)n(C)c2ccc(C(C)(C)c3ccccc3)cc12
inactive: dose: 50.0 mg/kg/injection, schedule: Q01DX001 (ip), vehicle: other 91 % of control | [5] 91 % of control | [6] 96 % of control | [7] 93 % of control
